Source: ChEMBL document CHEMBL1137553, “An expeditious synthesis of tamoxifen, a representative SERM (selective estrogen receptor modulator), via the three-component coupling reaction among aromatic aldehyde, cinnamyltrimethylsilane, and beta-chlorophenetole” (Bioorg Med Chem, 2007)
≈ marks a conversion by molar mass, not a printed value.

Experiments:
[1] = system: HL-60; assay: Antiproliferative activity against human HL60 cells assessed as cell viability at 10 ug/ml after 4 hrs by MTT assay; format: functional; settings: HL-60, 4 h, read-out: Activity
[2] = system: HL-60; assay: Antiproliferative activity against human HL60 cells assessed as cell viability at 20 ug/ml after 4 hrs by MTT assay; format: functional; settings: HL-60, 4 h, read-out: Activity
[3] = system: HL-60; assay: Growth inhibition of human HL60 cells after 4 hrs by MTT assay; format: functional, cell-based; settings: HL-60, 4 h
[4] = system: HL-60; assay: Antiproliferative activity against human HL60 cells assessed as cell viability at 1 ug/ml after 4 hrs by MTT assay; format: functional; settings: HL-60, 4 h, read-out: Activity
[5] = system: HL-60; assay: Antiproliferative activity against human HL60 cells assessed as cell viability after 4 hrs by MTT assay; format: functional
[6] = system: HL-60; assay: Antiproliferative activity against human HL60 cells assessed as cell viability at 5 ug/ml after 4 hrs by MTT assay; format: functional; settings: HL-60, 4 h, read-out: Activity

Q: Which viability at 10 µg/mL [1] does the source give for `CC/C(=C(/c1ccc(Br)cc1)c1ccc(OCCN(C)C)cc1)c1ccccc1` here?
A: 13.2%

Q: And the viability at 20 µg/mL [2]?
A: 7.01%

Q: And the IC50 [3]?
A: 6 mg/L (≈ 13.3 µM)

Q: What about the viability at 1 µg/mL [4] of the same molecule?
A: 99.9%

Q: And the Activity [5]?
A: 100%

Q: What about the viability at 5 µg/mL [6] of the same molecule?
A: 59.2%

Q: How did the viability at 10 µg/mL [1] turn out when `CC/C(=C(/c1ccc(OCCN(C)C)cc1)c1cccc(I)c1)c1ccccc1` was run?
A: 97.2%

Q: And the viability at 20 µg/mL [2]?
A: 36%

Q: And the IC50 [3]?
A: 19 mg/L (≈ 38.2 µM)

Q: And the viability at 1 µg/mL [4]?
A: 109%

Q: What about the Activity [5] of the same molecule?
A: 100%

Q: What about the viability at 5 µg/mL [6] of the same molecule?
A: 104%

Q: Which viability at 10 µg/mL [1] does the source give for `CC/C(=C(\c1ccc(I)cc1)c1ccc(OCCN2CCCC2)cc1)c1ccccc1` [IDOXIFENE] here?
A: 25.5%

Q: And the viability at 20 µg/mL [2]?
A: 8.72%

Q: What about the IC50 [3] of the same molecule?
A: 7.7 mg/L (≈ 14.7 µM)

Q: And the viability at 1 µg/mL [4]?
A: 106%

Q: What about the Activity [5] of the same molecule?
A: 100%

Q: What about the viability at 5 µg/mL [6] of the same molecule?
A: 82.7%

Q: For `CC/C(=C(\c1ccccc1)c1ccc(OCCN(C)C)cc1)c1ccccc1` [TAMOXIFEN], which viability at 10 µg/mL [1] is on record?
A: 15.9%

Q: And the viability at 20 µg/mL [2]?
A: 5.45%

Q: What about the IC50 [3] of the same molecule?
A: 5.9 mg/L (≈ 15.9 µM)

Q: What about the viability at 1 µg/mL [4] of the same molecule?
A: 96.2%

Q: What about the Activity [5] of the same molecule?
A: 100%

Q: What about the viability at 5 µg/mL [6] of the same molecule?
A: 53.5%
